Data set [1] concerns the target T1, cloned hNav1.8 channels expressed in CHO cells (Homo sapiens, UniProt Q9Y5Y9).
T1 construct: expressed in transfected cells
Nature of the data set: Na+ channel blocking examination, automated whole-cell patch clamp (IonWorks Quattro). As to conditions: for IC50: hNav1.8 in CHO cells; for block of hNav1.8 channels in the inactivated state, potency relative to control (lacosamide): in words. Format: cell-based. The method, then: Using an automated whole-cell patch-clamp approach, the in vitro effects of oligomer-containing compounds of the invention (synthesis described in Example 1) on cloned hNav1.8 channels expressed in CHO cells relative to control (lacosamide) were evaluated.
The procedures used in this experiment followed those set forth in Sheets et al. (2008) J Pharmacol Exp Ther 326(1):89-99. Briefly, automated patch clamp electrophysiological procedures were carried out in the IonWorks Quattro™ system (Molecular Devices Corporation, Union City Calif.). In preparation for a current recording session, intracellular solution (140 mM KCl, 5 mM MgCl2, 0.5 mM EGTA, 10 mM HEPES, 0.1 mg/mL amphotericin B) was loaded into the intracellular compartment of the Population Patch Clamp™ (PPC) planar electrode. CHO cells stably expressing the human Nav1.8 sodium channel subtype were suspended in HEPES-buffered physiological saline solution (137 mM NaCl, 4 mM KCl, 1.8 mM CaCl2, 1 mM MgCl2, 10 mM HEPES, 10 mM Glucose, pH adjusted to 7.4 with NaOH) and pipetted into the wells of the PPC planar electrode. After establishment of a whole-cell configuration (the perforated patch), membrane currents were recorded using patch clamp amplifier in the IonWorks Quattro™ system. Test article concentrations, loaded in a 384-well compound plate, were applied to naïve cells (one concentration per cell) via steel needles of a 48-channel pipettor. Each application consisted of addition of 6 μL of 2× concentrated test article solution to the total 12 μL final volume of the extracellular well of the PPC planar electrode. The PPC well contents were then mixed (three times) following addition of test article. All experiments were performed at ambient temperature.
Block of hNav1.8 sodium channel was measured using a stimulus voltage pattern shown in FIG. 1, and voltage potentials are indicated in Table 1. The pulse pattern was repeated twice (once before addition of test article and the other five minutes after test article addition). Peak current amplitudes were measured at three test pulses: TP1 (tonic block), TP11 (frequency-dependent block at 10 Hz), and TP12 (inactivated state block).
Data acquisition and analyses were performed using the IonWorks Quattro™ system operation software (version 2.0.2; Molecular Devices Corporation, Union City, Calif.). Inhibition potencies were estimated from concentration-response curves fitted using the Hill function: % Block=% VC+{(100−% VC)−(100−% VC)/[1+([Test]/IC50)^N]}, where [Test] is the concentration of test article, IC50 is the concentration of the test article producing half-maximal inhibition, N is the Hill coefficient, % VC is the percentage of the current run-down (the mean current inhibition at the vehicle control) and % Block is the percentage of ion channel current inhibited at each concentration of the test article.
(In general: In patch-clamp work, channel activity is measured electrically.)

Data set [2] has as its system formalin-induced paw licking in the mouse. The data set is described as follows: Pain model: formalin-induced paw licking in the mouse. Format: in vivo. As to conditions: for formalin-induced paw licking compared to saline, Phase 2: dose 200, PO, Phase 2 (15-30 minutes); for mice sedated / mice with splayed posture: 200 mg/kg orally. The method, then:
In the formalin-induced paw licking model, a test compound is administered via oral gavage (“PO”) followed in thirty minutes by the subcutaneous injection of formalin to a hind paw of a mouse. Subcutaneous injection of formalin first causes a pain-inducing mechanical injury (involving bradykinin and substance P) in the first five minutes (“Phase 1”) followed by a pain-inducing inflammatory response (involving bradykinin, histamine, serotonin and prostaglandins) occurring between 15-30 minutes (“Phase 2”) following the formalin injection. Both pain-inducing stimuli causes a characteristic “paw licking” response. The amount of time spent licking the formalin-injected paw is measured during Phase 1 and Phase 2. If the test article has relatively good pain reducing properties, a reduction in the time spent licking the formalin-injected paw is observed compared to the saline control group. […] By measuring a series of test articles, it is possible to understand each test article's pain reducing activity relative to each other.

The nature of data set [3]: Solubility of test articles in dosing vehicle 0.5% CMC. Format: physicochemical. Particulars: 0.5% CMC (carboxymethylcellulose).
The mark [4] stands for this setting: test pulse TP1 (tonic block), 5 min after test article addition, read-out: IC50, type of block: Tonic.
[5] abbreviates: test pulse TP11 (frequency-dependent block at 10 Hz), read-out: IC50, type of block: 10 Hz.
[6] abbreviates: test pulse TP12 (inactivated state block), read-out: IC50, type of block: Inactivated state.
The mark [7] stands for this setting: 30 min before formalin, in words.

Each structure is given as a SMILES string. Where two headings read alike, the source gives them in different places. Bounds are passed on as bounds.

T1 sequence (Q9Y5Y9 whole entry): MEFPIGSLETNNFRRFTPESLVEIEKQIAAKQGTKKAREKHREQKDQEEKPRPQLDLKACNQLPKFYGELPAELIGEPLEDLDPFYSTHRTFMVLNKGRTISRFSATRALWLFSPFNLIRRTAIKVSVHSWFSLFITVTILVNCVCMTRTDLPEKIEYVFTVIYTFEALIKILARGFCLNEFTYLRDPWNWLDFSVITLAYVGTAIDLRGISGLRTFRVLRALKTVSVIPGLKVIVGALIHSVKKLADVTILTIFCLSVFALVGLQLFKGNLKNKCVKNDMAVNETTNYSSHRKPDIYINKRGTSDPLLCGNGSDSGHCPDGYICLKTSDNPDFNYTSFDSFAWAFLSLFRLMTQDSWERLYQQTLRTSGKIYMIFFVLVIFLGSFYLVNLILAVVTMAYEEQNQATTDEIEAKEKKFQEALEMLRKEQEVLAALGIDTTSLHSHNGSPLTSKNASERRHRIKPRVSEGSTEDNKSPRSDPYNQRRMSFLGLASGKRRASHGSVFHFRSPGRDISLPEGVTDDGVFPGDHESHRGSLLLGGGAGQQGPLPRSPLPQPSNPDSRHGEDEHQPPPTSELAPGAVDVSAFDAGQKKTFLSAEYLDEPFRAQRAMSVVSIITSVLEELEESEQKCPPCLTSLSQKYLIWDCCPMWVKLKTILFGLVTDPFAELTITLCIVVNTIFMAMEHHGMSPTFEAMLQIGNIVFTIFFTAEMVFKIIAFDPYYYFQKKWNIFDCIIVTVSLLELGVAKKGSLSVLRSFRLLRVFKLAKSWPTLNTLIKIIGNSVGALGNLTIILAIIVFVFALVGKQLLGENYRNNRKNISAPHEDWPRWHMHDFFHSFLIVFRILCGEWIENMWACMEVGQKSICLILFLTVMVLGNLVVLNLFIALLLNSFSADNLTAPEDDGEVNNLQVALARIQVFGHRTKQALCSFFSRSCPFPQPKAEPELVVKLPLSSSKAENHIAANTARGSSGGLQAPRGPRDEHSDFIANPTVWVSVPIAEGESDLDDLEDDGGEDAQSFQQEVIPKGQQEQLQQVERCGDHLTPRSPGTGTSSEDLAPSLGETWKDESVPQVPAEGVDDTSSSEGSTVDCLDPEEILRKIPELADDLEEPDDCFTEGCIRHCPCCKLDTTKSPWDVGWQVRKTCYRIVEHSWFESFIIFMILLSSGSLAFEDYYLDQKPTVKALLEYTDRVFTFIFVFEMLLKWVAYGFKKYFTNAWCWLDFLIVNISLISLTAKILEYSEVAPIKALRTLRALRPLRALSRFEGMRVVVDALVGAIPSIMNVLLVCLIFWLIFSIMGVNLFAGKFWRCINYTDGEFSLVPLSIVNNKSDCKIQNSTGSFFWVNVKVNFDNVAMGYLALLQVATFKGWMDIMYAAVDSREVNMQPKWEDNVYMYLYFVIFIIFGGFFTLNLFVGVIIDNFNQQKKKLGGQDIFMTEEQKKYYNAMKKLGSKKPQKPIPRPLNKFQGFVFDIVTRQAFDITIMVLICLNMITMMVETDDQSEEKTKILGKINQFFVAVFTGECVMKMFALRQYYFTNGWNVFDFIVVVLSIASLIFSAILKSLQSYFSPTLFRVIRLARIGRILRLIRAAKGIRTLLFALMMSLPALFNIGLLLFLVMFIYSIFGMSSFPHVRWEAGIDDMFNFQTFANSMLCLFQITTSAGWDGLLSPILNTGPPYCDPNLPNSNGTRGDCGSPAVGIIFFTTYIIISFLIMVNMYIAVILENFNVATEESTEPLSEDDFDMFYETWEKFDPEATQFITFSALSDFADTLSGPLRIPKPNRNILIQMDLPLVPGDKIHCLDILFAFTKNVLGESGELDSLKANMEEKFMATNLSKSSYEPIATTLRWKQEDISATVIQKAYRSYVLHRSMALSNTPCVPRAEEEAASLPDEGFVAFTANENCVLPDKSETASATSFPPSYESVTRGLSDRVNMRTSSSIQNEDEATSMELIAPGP

Turning to `COCCOCCOCCOCCOCCOC(=O)N[C@H](COC)C(=O)NCc1ccccc1` [(2R) N-benzyl-2-carboxy mPEG5 amino-3-methoxy propionamide], the IC50 in data set [1] (setting [4]), in data set [1] (setting [5]) and in data set [1] (setting [6]) was more than 300 µM throughout. In data set [2] (setting [7]), the “formalin-induced paw licking compared to saline, Phase 2” value was “showed a reduction”.
Regarding `COCCOCCOCCOCCOCCOCCOCCOCCOCCOC(=O)N[C@H](COC)C(=O)NCc1ccccc1` [(2R) N-benzyl-2-carboxy mPEG9 amino-3-methoxy propionamide], the IC50 in data set [1] (setting [4]), in data set [1] (setting [5]) and in data set [1] (setting [6]) was more than 300 µM in each case.
As for `COCCOCCOC(=O)N[C@H](COC)C(=O)NCc1ccccc1` [(2R) N-benzyl-2-carboxy mPEG2 amino-3-methoxy propionamide], the values for the half-inhibitory concentration (IC50) in data set [1] (setting [4]), in data set [1] (setting [5]) and in data set [1] (setting [6]) were more than 300 µM, more than 300 µM and 166 µM, respectively. Moreover, the “block of hNav1.8 channels in the inactivated state, potency relative to control (lacosamide)” value (“block … potency relative to control (lacosamide)” for short) in data set [1] was “potency comparable to control”. For the same compound, in data set [2] (setting [7]), the “formalin-induced paw licking compared to saline, Phase 2” value is recorded as “showed a reduction”.
With `COCCOCCOCCOCCOCCOCCOCCOC(=O)N[C@H](COC)C(=O)NCc1ccccc1` [(2R) N-benzyl-2-carboxy mPEG7 amino-3-methoxy propionamide], the IC50 in data set [1] (setting [4]), in data set [1] (setting [5]) and in data set [1] (setting [6]) was more than 300 µM each time.
`COCCOCCOCCOC(=O)N[C@H](COC)C(=O)NCc1ccccc1` [(2R) N-benzyl-2-carboxy mPEG3 amino-3-methoxy propionamide]: the IC50 (as a rule, the midpoint of a concentration-inhibition curve) in data set [1] (setting [4]) was more than 300 µM; in data set [1] (setting [5]), more than 300 µM; in data set [1] (setting [6]) it was 239 µM. In addition, in data set [1], the “block … potency relative to control (lacosamide)” value is given as “potency comparable to control”. The “formalin-induced paw licking compared to saline, Phase 2” value in data set [2] (setting [7]) is recorded as “showed a reduction”.
With `COCCOC(=O)N[C@H](COC)C(=O)NCc1ccccc1` [(2R) N-benzyl-2-carboxy mPEG1 amino-3-methoxy propionamide], the figures for the IC50 in data set [1] (setting [4]), in data set [1] (setting [5]) and in data set [1] (setting [6]) were more than 300 µM, more than 300 µM and 267 µM, respectively. The “block … potency relative to control (lacosamide)” value in data set [1] is given as “potency comparable to control”. In data set [3], the solubility in vehicle entry is “not readily soluble”.
Regarding `COCCOCCOCCOCCOCCOCCOCCOCCOC(=O)N[C@H](COC)C(=O)NCc1ccccc1` [(2R) N-benzyl-2-carboxy mPEG8 amino-3-methoxy propionamide], the half-maximal inhibitory concentration (IC50) in data set [1] (setting [4]), in data set [1] (setting [5]) and in data set [1] (setting [6]) was more than 300 µM throughout.
Turning to `COCCOCCOCCOCCOC(=O)N[C@H](COC)C(=O)NCc1ccccc1` [(2R) N-benzyl-2-carboxy mPEG4 amino-3-methoxy propionamide], the half-maximal inhibitory concentration (IC50) in data set [1] (setting [4]), in data set [1] (setting [5]) and in data set [1] (setting [6]) was more than 300 µM in each case. Further, in data set [2] (setting [7]), the “formalin-induced paw licking compared to saline, Phase 2” value is recorded as “showed a reduction”.
As to `COCCOCCOCCOCCOCCOCCOC(=O)N[C@H](COC)C(=O)NCc1ccccc1` [(2R) N-benzyl-2-carboxy mPEG6 amino-3-methoxy propionamide], the IC50 in data set [1] (setting [4]), in data set [1] (setting [5]) and in data set [1] (setting [6]) was more than 300 µM in each case.
Consider `COC[C@@H](NC(C)=O)C(=O)NCc1ccccc1` [(R)—N-benzyl-2-acetamido-3-methoxy propionamide], for which the 50% inhibitory concentration (IC50) in data set [1] (IC50, type of block: 10 Hz, test pulse TP11 (frequency-dependent block at 10 Hz)) is more than 300 µM; in data set [1] (IC50, type of block: Inactivated state, test pulse TP12 (inactivated state block)), 278 µM; in data set [1] (IC50, type of block: Tonic, test pulse TP1 (tonic block), 5 min after test article addition) it was more than 300 µM. The “formalin-induced paw licking time, Phase 1” value in data set [2] (200 mg/kg PO, 30 min before formalin, Phase 1 (first five minutes), in words) is “greatest reduction”. Besides, the mice sedated in data set [2] (Phase 1) is given as 5/7; in data set [2] (Phase 2) it was 6/7. The results for the “mice with splayed posture” value in data set [2] (Phase 1) and in data set [2] (Phase 2) were 5/7 and 7/7, respectively. Besides, the “formalin-induced paw licking compared to saline, Phase 2” value in data set [2] (setting [7]) is reported as “greatest reduction”. Also, the solubility in vehicle entry in data set [3] was “not readily soluble”.

The record behind these values is patent US10265411B2, “N-optionally substituted aryl-2-oligomer-3-alkoxypropionamides” (Nektar Therapeutics, priority 2010, dated 2019).
